Values joined by “and” are separate entries in the source; they are usually repeats but may differ in a detail not shown here. Equal values may be shown once. Where a name gives a salt, the structure may show the parent alone.
Target: T1, human serotonin transporter (hSERT) (Homo sapiens, UniProt P31645)
T1 construct: expressed in transfected cells; host or cells: HEK-293 (stably transfected)
Assay: inhibition of 3H-serotonin uptake in HEK-293 cells expressing hSERT
Assay type: cell-based
Conditions: HEK-293 cells with hSERT, 3H-5HT 50 nM, 5 min incubation; read-out: serotonin re-uptake inhibition (SRI) IC50
Description: A number of compounds were tested for biological activity by their ability to inhibit the uptake of serotonin by human serotonin transporters as follows.
Human embryonic kidney cells (HEK-293) stably transfected with either the human serotonin transporter (hSERT), noradrenaline transporter (hNET) or dopamine transporter (hDAT) were cultured under standard cell culture techniques (cells were grown at 37° C. and 5% CO2 in DMEM-culture media (supplemented with 10% dialysed foetal calf serum (FCS), 2 mM I-glutamine and 250 μg/ml geneticin)). Cells were harvested for the assay to yield a cell suspension of 750,000 cells/ml.
All test compounds were dissolved in 100% DMSO and diluted down in assay buffer to give appropriate test concentrations. Assays were carried out in 96-well filter bottom plates. Cells (7500 cells/assay well) were pre-incubated in standard assay buffer containing either test compound, standard inhibitor or compound vehicle (1% DMSO) for 5 minutes. Reactions were started by addition of either ^3H-Serotonin, ^3H-Noradrenaline or ^3H-Dopamine substrates. All reactions were carried out at room temperature in a shaking incubator. Incubation times were 5 minutes for the hSERT and hDAT assays and 15 minutes for the hNET assay. Reactions were terminated by removal of the reaction mixture using a vacuum manifold followed by rapid washing with ice cold assay buffer. The quantity of ^3H-substrate incorporated into the cells was then quantified.
Assay plates were dried in a microwave oven, scintillation fluid added, and radioactivity measured. Potency of test compounds was quantified as IC50 values (concentration of test compound required to inhibit the specific uptake of radiolabelled substrate into the cells by 50%).

T1 sequence (P31645 whole entry): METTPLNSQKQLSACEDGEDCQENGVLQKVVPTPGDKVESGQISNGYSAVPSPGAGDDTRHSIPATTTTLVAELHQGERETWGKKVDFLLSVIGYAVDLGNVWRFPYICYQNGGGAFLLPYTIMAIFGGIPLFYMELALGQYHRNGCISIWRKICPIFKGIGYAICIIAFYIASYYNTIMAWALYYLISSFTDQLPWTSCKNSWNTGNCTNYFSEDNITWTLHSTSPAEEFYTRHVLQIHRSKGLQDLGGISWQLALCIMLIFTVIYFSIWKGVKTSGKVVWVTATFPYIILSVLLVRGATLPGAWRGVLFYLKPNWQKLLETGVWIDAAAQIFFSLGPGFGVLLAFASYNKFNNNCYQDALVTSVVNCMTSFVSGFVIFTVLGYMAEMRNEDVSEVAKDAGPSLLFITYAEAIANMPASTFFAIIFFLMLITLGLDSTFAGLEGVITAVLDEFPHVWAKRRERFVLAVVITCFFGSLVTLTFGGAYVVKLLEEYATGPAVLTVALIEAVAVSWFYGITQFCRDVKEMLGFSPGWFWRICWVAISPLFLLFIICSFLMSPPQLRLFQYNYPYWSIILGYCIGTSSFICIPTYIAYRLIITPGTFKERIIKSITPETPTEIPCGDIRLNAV

IC50 | Compound
13 nM | CS(=O)(=O)Nc1ccc(Oc2ccc(OC(F)(F)F)cc2)c(C2CCCN2)c1 (single isomer, unassigned) [Example 21]
≤ 100 nM and ≤ 50 nM and 5.9 nM | CNS(=O)(=O)c1ccc(Oc2ccc(SC)cc2)c(C2CCCN2)c1 (single isomer, unassigned) [Example 11, N-methyl-4-[4-(methylsulfanyl)phenoxy]-3-(2-pyrrolidinyl)benzenesulfonamide]
≤ 50 nM | CS(=O)(=O)Nc1ccc(Oc2ccc(OC(F)(F)F)cc2)c(C2CCCN2)c1 (single isomer, unassigned; (+)) [Example 22, (+) N-{3-(2-pyrrolidinyl)-4-[4-(trifluoromethoxy)phenoxy]phenyl}-methanesulfonamide]
≤ 100 nM and ≤ 50 nM and 5.4 nM | CSc1ccc(Oc2ccc(S(N)(=O)=O)cc2C2CCCN2)cc1 (single isomer, unassigned; (+)) [Example 7, (+)4-[4-(Methylsulfanyl)phenoxy]-3-(2-pyrrolidinyl)benzenesulfonamide hydrochloride]

Reference: patent US6630504B2, “Phenoxyphenylheterocyclyl derivatives as SSRIs” (Pfizer Inc., priority 2000, dated 2003)
